Source: patent US7087375B1, “Method for determining the mechanism of HIV RT inhibitors” (priority 2000, dated 2006)
Where “and” joins values, the source holds several entries; their conditions need not be identical. Equal values may be shown once. Read-outs that look alike come from different tables or passages of the source. Marks after values point to notes of the source that are not given here.

What was measured:
[1] = molecular target: T1, HIV-1 RT mutant 69S-AG (Human immunodeficiency virus type 1 group M subtype B, UniProt P04585, INS655SA/T656G/T656S); type: biochemical; conditions: 69S-AG RT
T1 construct: The final RT products, in a heterodimeric form (p66/p51); made in house; host or cells: E. coli XL1-Blue (vector pKK233-2)

[2] = molecular target: T2, HIV-1 RT mutant 69S-SG (Human immunodeficiency virus type 1 group M subtype B, UniProt P04585, INS655SS/T656G/T656S); type: biochemical; conditions: 69S-SG RT
T2 construct: The final RT products, in a heterodimeric form (p66/p51); made in house; host or cells: E. coli XL1-Blue (vector pKK233-2)

[3] = molecular target: T3, HIV-1 RT mutant 41/69S-SS/215 (Human immunodeficiency virus type 1 group M subtype B, UniProt P04585, INS655SS/M628L/T656S/T802Y); type: biochemical; conditions: 41/69S-SS/215 RT
T3 construct: The final RT products, in a heterodimeric form (p66/p51); made in house; host or cells: E. coli XL1-Blue (vector pKK233-2)

[4] = molecular target: T4, HIV-1 RT mutant 41/67/70/184/210/211/214/215 (Human immunodeficiency virus type 1 group M subtype B, UniProt P04585, D654N/K657R/L797W/L801F/M628L/M771V/R798K/T802Y); type: biochemical; conditions: 41/67/70/184/210/211/214/215 RT
T4 construct: The final RT products, in a heterodimeric form (p66/p51); made in house; host or cells: E. coli XL1-Blue (vector pKK233-2)

[5] = molecular target: T5, HIV-1 RT mutant 41/67/70/184/215 (Human immunodeficiency virus type 1 group M subtype B, UniProt P04585, D654N/K657R/M628L/M771V/T802Y); type: biochemical; conditions: 41/67/70/184/215 RT
T5 construct: The final RT products, in a heterodimeric form (p66/p51); made in house; host or cells: E. coli XL1-Blue (vector pKK233-2)

[6] = molecular target: T6, HIV-1 RT wild type (HXB2) (Human immunodeficiency virus type 1 group M subtype B, UniProt P04585); type: biochemical; conditions: for Fold resistance in RT-assay relative to HXB2: wild type HXB2 RT (reference); for Ki / Ki/Km: wild type HXB2 RT
T6 construct: The final RT products, in a heterodimeric form (p66/p51); made in house; host or cells: E. coli XL1-Blue (vector pKK233-2)

[7] = molecular target: T7, HIV-1 RT mutant 69S-SS (Human immunodeficiency virus type 1 group M subtype B, UniProt P04585, INS655SS/T656S); type: biochemical; conditions: 69S-SS RT
T7 construct: The final RT products, in a heterodimeric form (p66/p51); made in house; host or cells: E. coli XL1-Blue (vector pKK233-2)

[8] = molecular target: HIV-1 RT mutant 41/215 (Human immunodeficiency virus type 1 group M subtype B, UniProt P04585, M628L/T802Y); assay: RT inhibition assay (Lenti RT, polyrA/oligo(dT), BrdUTP); type: biochemical; conditions: 41/215 RT
[9] = molecular target: T8, HIV-1 RT mutant 41/67/70/215 (Human immunodeficiency virus type 1 group M subtype B, UniProt P04585, D654N/K657R/M628L/T802Y); type: biochemical; conditions: 41/67/70/215 RT
T8 construct: The final RT products, in a heterodimeric form (p66/p51); made in house; host or cells: E. coli XL1-Blue (vector pKK233-2)

[10] = molecular target: T9, HIV-1 RT mutant 41/184/215 (Human immunodeficiency virus type 1 group M subtype B, UniProt P04585, M628L/M771V/T802Y); type: biochemical; conditions: 41/184/215 RT
T9 construct: The final RT products, in a heterodimeric form (p66/p51); made in house; host or cells: E. coli XL1-Blue (vector pKK233-2)

[11] = test system: HXB2 site-directed mutant M41L, T69S-SS, T215Y; type: cell-based; conditions: virus M41L
[12] = test system: HXB2 site-directed mutant M41L, D67N, K70R, M184V, T215Y; type: cell-based; conditions: virus M41L
[13] = test system: HXB2 site-directed mutant M41L, T69S-SG, T215Y; type: cell-based; conditions: virus M41L
[14] = test system: HXB2 site-directed mutant M41L, T69S-AG, T215Y; type: cell-based; conditions: virus M41L
[15] = test system: HXB2 site-directed mutant T69S-SG; type: cell-based; conditions: virus T69S-SG
[16] = test system: HXB2 site-directed mutant D67N, K70R; type: cell-based; conditions: virus D67N
[17] = test system: HXB2 site-directed mutant M41L, T215Y; type: cell-based; conditions: virus M41L
[18] = test system: HXB2 site-directed mutant T69S-AG; type: cell-based; conditions: virus T69S-AG
[19] = test system: HXB2 site-directed mutant T69S-SS; type: cell-based; conditions: virus T69S-SS
[20] = test system: HXB2 site-directed mutant M41L, M184V, T215Y; type: cell-based; conditions: virus M41L
[21] = test system: wild type HXB2 virus; assay: HIV drug susceptibility assay (recombinant virus, MT-4 cells)
Procedure: Phenotypic susceptibility of these viable recombinant viruses to nucleoside analogs was then determined. […] Fold resistance values were calculated by dividing the mean 50% inhibitory concentration (IC50) for a recombinant virus from a mutant clone by the mean IC50 for recombinant wild type virus (HXB2).

[22] = no extra additions (without ATP)
[23] = nontreated pyrophosphatase ATP 3.2 mM (control), single experiment
[24] = pyrophosphatase treated ATP 3.2 mM, single experiment

AZT-TP
Fold resistance in RT-assay relative to HXB2 ([1]; ATP 3.2 mM): 14.0 fold | Ki ([1]; ATP 3.2 mM): 125 nM | Ki/Km ([1]; ATP 3.2 mM): 0.45 | level of resistance in RT assay relative to wild type ([1]; GTP 0.5 mM): 1.2–1.3 fold | level of resistance in RT assay relative to wild type ([1]; PPi 150 μM): 3.3 | Fold resistance in RT-assay relative to HXB2 ([1]; without ATP): 1.9 fold | Ki ([1]; without ATP): 6.4 nM | Ki/Km ([1]; without ATP): 0.064 | Fold resistance in RT-assay relative to HXB2 ([2]; ATP 3.2 mM): 8.4 fold | Ki ([2]; ATP 3.2 mM): 96 nM | Ki/Km ([2]; ATP 3.2 mM): 0.27 | Fold resistance in RT-assay relative to HXB2 ([2]; without ATP): 1.1 fold | Ki ([2]; without ATP): 3.8 nM | Ki/Km ([2]; without ATP): 0.038 | Fold resistance in RT-assay relative to HXB2 ([3]; ATP 3.2 mM): 20 fold and 19.7 fold | Ki ([3]; ATP 3.2 mM): 133 nM | Ki/Km ([3]; ATP 3.2 mM): 0.63 | Fold resistance in RT-assay relative to HXB2 ([3]; without ATP): 0.9 fold | Ki ([3]; without ATP): 1.4 nM | Ki/Km ([3]; without ATP): 0.031 | Fold resistance in RT-assay relative to HXB2 ([4]; ATP 3.2 mM): 2.8 fold | Ki ([4]; ATP 3.2 mM): 52 nM | Ki/Km ([4]; ATP 3.2 mM): 0.09 | Fold resistance in RT-assay relative to HXB2 ([4]; without ATP): 0.3 fold | Ki ([4]; without ATP): 1.3 nM | Ki/Km ([4]; without ATP): 0.011 | Fold resistance in RT-assay relative to HXB2 ([5]; ATP 3.2 mM): 4.1 fold | Ki ([5]; ATP 3.2 mM): 50 nM | Ki/Km ([5]; ATP 3.2 mM): 0.13 | Fold resistance in RT-assay relative to HXB2 ([5]; without ATP): 0.3 fold | Ki ([5]; without ATP): 0.6 nM | Ki/Km ([5]; without ATP): 0.01 | Fold resistance in RT-assay relative to HXB2 ([6]; ATP 3.2 mM): 1.0 fold | Fold resistance in RT-assay relative to HXB2 ([6]; without ATP): 1.0 fold | Ki ([6]; ATP 3.2 mM): 10 nM | Ki/Km ([6]; ATP 3.2 mM): 0.032 | Ki ([6]; ATP 3.2 mM + PPi 150 μM): 59 nM | Ki/Km ([6]; ATP 3.2 mM + PPi 150 μM): 0.11 | Ki ([6]; ATP 6.0 mM): 40 nM | Ki/Km ([6]; ATP 6.0 mM): 0.049 | Ki ([6]; ATP […]): 4.8 nM | Ki/Km ([6]; ATP […]): 0.02 | Ki ([6]; GTP 0.5 mM): 9 nM | Ki/Km ([6]; GTP 0.5 mM): 0.028 | Ki ([6]; PPi 150 μM): 26 nM | Ki/Km ([6]; PPi 150 μM): 0.087 | Ki [6, 22]: 5.8 nM | Ki/Km [6, 22]: 0.034 | Fold resistance in RT-assay relative to HXB2 ([7]; ATP 3.2 mM): 3.0 fold | Ki ([7]; ATP 3.2 mM): 21 nM | Ki/Km ([7]; ATP 3.2 mM): 0.095 | Fold resistance in RT-assay relative to HXB2 ([7]; without ATP): 0.8 fold | Ki ([7]; without ATP): 1.7 nM | Ki/Km ([7]; without ATP): 0.026 | Fold resistance in RT-assay relative to HXB2 ([8]; ATP 3.2 mM): 3 fold and 2.9 fold | Ki ([8]; ATP 3.2 mM): 34 nM | Ki/Km ([8]; ATP 3.2 mM): 0.094 | level of resistance in RT assay relative to wild type ([8]; GTP 0.5 mM): 1.2–1.3 fold | level of resistance in RT assay relative to wild type ([8]; PPi 150 μM): 1.1 fold | Fold resistance in RT-assay relative to HXB2 ([8]; without ATP): 0.8 fold | Ki ([8]; without ATP): 3 nM | Ki/Km ([8]; without ATP): 0.027 | Fold resistance in RT-assay relative to HXB2 ([9]; ATP 3.2 mM): 16.6 fold and 16.6 (+/−0.3) fold | Ki ([9]; ATP 3.2 mM): 39 nM | Ki/Km ([9]; ATP 3.2 mM): 0.53 | Fold resistance in RT-assay relative to HXB2 ([9]; ATP 3.2 mM + PPi 150 μM): 12.6 fold and 12.6 (+/−3) fold | Ki ([9]; ATP 3.2 mM + PPi 150 μM): 280 nM | Ki/Km ([9]; ATP 3.2 mM + PPi 150 μM): 1.39 | Fold resistance in RT-assay relative to HXB2 ([9]; ATP 6.0 mM): 15.9 (+/−4) fold | Ki ([9]; ATP 6.0 mM): 176 nM | Ki/Km ([9]; ATP 6.0 mM): 0.78 | Ki ([9]; ATP […]): 6.4 nM | Ki/Km ([9]; ATP […]): 0.1 | Fold resistance in RT-assay relative to HXB2 ([9]; GTP 0.5 mM): 1.2 (+/−0.03) fold | Ki ([9]; GTP 0.5 mM): 4 nM | Ki/Km ([9]; GTP 0.5 mM): 0.034 | Fold resistance in RT-assay relative to HXB2 ([9]; PPi 150 μM): 10.5 fold and 10.5 (+/−3) fold | Ki ([9]; PPi 150 μM): 83 nM | Ki/Km ([9]; PPi 150 μM): 0.92 | Fold resistance in RT-assay relative to HXB2 [9, 22]: 0.9 fold and 0.9 (+/−0.1) fold | Ki/Km [9, 22]: 0.03 | Ki [9, 23]: 20 nM | Ki/Km [9, 23]: 0.46* | Ki [9, 24]: 16 nM | Ki/Km [9, 24]: 0.42* | Fold resistance in RT-assay relative to HXB2 ([10]; ATP 3.2 mM): 5.9 fold | Ki/Km ([10]; ATP 3.2 mM): 0.19 | Fold resistance in RT-assay relative to HXB2 ([10]; without ATP): 1.3 fold | Ki ([10]; without ATP): 2.2 nM | Ki/Km ([10]; without ATP): 0.045

Cc1cn([C@H]2C=C[C@@H](CO)O2)c(=O)[nH]c1=O [d4T, stavudine]
Fold resistance in IC50 relative to HXB2 [11]: 7.1 fold | Fold resistance in IC50 relative to HXB2 [12]: 3.7 fold and 3.7 +/− 1.0 fold | Fold resistance in IC50 relative to HXB2 [13]: 4.0 fold | Fold resistance in IC50 relative to HXB2 [14]: 3.1 fold | Fold resistance in IC50 relative to HXB2 [15]: 4.4 fold and 4.4 +/− 1.1 fold | Fold resistance in IC50 relative to HXB2 [16]: 5.1 fold | Fold resistance in IC50 relative to HXB2 [17]: 2.6 fold | Fold resistance in IC50 relative to HXB2 [18]: 6.9 fold and 6.9 +/− 2.7 fold | Fold resistance in IC50 relative to HXB2 [19]: 4.4 fold | Fold resistance in IC50 relative to HXB2 [20]: 2.2 fold | IC50 ([21]; Human immunodeficiency virus 1, HXB2, MT4, read-out: mean IC50 for the wild type control virus): 1200 nM | Virus Assay fold resistance ([21]; wild type HXB2 virus (reference)): 1.0 fold
